Measured values: US7592336B2, “Hepatitis C virus inhibitors” (Bristol-Myers Squibb Company, priority 2005, dated 2009)

Experiments:
[1] = target: T1, HCV NS3/4A protease complex, BMS strain (UniProt P27958, species not given/STRAIN_BMS); experiment: FRET peptide assay to monitor HCV NS3/4A proteolytic activity (BMS strain); assay type: biochemical, HCV genotype 1a; conditions: NS3/4A BMS strain; read-out: Activity Range (IC50)
T1 construct: said of H77 and J4L6S, not expressly of BMS; fused on or other part: A three-lysine solubilising tail at the NS4A C-terminus and purification on Ni-NTA are described for the H77 and J4L6S constructs
T1 sequence (P27958 1027-1657, change not shown, one chain of several): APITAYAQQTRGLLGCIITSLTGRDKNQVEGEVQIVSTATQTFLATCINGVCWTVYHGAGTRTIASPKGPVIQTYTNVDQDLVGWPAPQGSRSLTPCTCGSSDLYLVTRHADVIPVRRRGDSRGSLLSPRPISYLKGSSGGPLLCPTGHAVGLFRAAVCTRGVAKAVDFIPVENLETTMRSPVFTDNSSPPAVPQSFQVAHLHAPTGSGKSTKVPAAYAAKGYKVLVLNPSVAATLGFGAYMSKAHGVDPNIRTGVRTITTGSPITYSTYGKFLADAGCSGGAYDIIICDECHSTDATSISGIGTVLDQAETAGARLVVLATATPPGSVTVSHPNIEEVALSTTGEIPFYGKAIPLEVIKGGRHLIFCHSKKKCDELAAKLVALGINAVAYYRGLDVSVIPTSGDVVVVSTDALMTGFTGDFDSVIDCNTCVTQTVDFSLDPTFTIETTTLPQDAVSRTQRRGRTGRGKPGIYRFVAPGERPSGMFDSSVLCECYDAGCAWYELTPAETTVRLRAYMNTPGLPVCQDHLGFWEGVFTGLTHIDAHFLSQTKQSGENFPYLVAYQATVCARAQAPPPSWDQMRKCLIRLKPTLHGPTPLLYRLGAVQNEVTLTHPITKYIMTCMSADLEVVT
Description: HCV NS3 protease complexes, derived from the BMS strain, H77 strain or J4L6S strain, were generated, as described below. These purified recombinant proteins were generated for use in a homogeneous assay (see below) to provide an indication of how effective compounds of the present disclosure would be in inhibiting HCV NS3 proteolytic activity.
Serum from an HCV-infected patient was obtained from Dr. T. Wright, San Francisco Hospital. An engineered full-length cDNA (compliment deoxyribonucleic acid) template of the HCV genome (BMS strain) was constructed from DNA fragments obtained by reverse transcription-PCR (RT-PCR) of serum RNA (ribonucleic acid) and using primers selected on the basis of homology between other genotype 1a strains. From the determination of the entire genome sequence, a genotype 1a was assigned to the HCV isolate according to the classification of Simmonds et al. (See P Simmonds, K A Rose, S Graham, S W Chan, F McOmish, B C Dow, E A Follett, P L Yap and H Marsden, J. Clin. Microbiol., 31(6), 1493-1503 (1993)). […] The infectious clones, H77 (1a genotype) and J4L6S (1b genotype) were obtained from R. Purcell (NIH) and the sequences are published in Genbank (AAB67036, see Yanagi, M., Purcell, R. H., Emerson, S. U. and Bukh, J. Proc. Natl. Acad. Sci. U.S.A. 94(16), 8738-8743 (1997); AF054247, see Yanagi, M., St Claire, M., Shapiro, M., Emerson, S. U., Purcell, R. H. and Bukh, J, Virology 244 (1), 161-172. (1998)).
NS3/4A protease complex-containing fractions were pooled and loaded on a desalting column Superdex-S200 pre-equilibrated with buffer D (25 mM HEPES, pH 7.5, 20% glycerol, 300 mM NaCl, 0.2% Triton X-100, 10 mM βME). Sample was loaded at a flow rate of 1 mL/min. NS3/4A protease complex-containing fractions were pooled and concentrated to approximately 0.5 mg/ml. The purity of the NS3/4A protease complexes, derived from the BMS, H77 and J4L6S strains, were judged to be greater than 90% by SDS-PAGE and mass spectrometry analyses. The enzyme was stored at −80° C., thawed on ice and diluted prior to use in assay buffer.
The purpose of this in vitro assay was to measure the inhibition of HCV NS3 protease complexes, derived from the BMS strain, H77 strain or J4L6S strain, as described above, by compounds of the present disclosure. This assay provides an indication of how effective compounds of the present disclosure would be in inhibiting HCV NS3 proteolytic activity.
In order to monitor HCV NS3/4A protease activity, an NS3/4A peptide substrate was used. The substrate was RET S1 (Resonance Energy Transfer Depsipeptide Substrate; AnaSpec, Inc. cat #22991) (FRET peptide), described by Taliani et al. in Anal. Biochem. 240(2):60-67 (1996). The sequence of this peptide is loosely based on the NS4A/NS4B natural cleavage site for the HCV NS3 protease except there is an ester linkage rather than an amide bond at the cleavage site. The peptide also contains a fluorescence donor, EDANS, near one end of the peptide and an acceptor, DABCYL, near the other end. The fluorescence of the peptide is quenched by […] resonance energy transfer (RET) between the donor and the acceptor, but as the NS3 protease cleaves the peptide the products are released from RET quenching and the fluorescence of the donor becomes apparent.
The peptide substrate was incubated with one of the three recombinant NS3/4A protease complexes, in the absence or presence of a compound of the present disclosure. The inhibitory effects of a compound were determined by monitoring the formation of fluorescent reaction product in real time using a Cytofluor Series 4000.
Assay buffer: 50 mM HEPES, pH 7.5; 0.15M NaCl; 0.1% Triton; 15% Glycerol; 10 mM βME. Substrate: 2 μM final concentration (from a 2 mM stock solution in DMSO stored at −20° C.). HCV NS3/4A protease type 1a (1b), 2-3 nM final concentration (from a 5 μM stock solution in 25 mM HEPES, pH 7.5, 20% glycerol, 300 mM NaCl, 0.2% Triton-X100, 10 mM βME). […]

[2] = system: HCV replicon in HUH-7 cells; experiment: HCV replicon FRET assay; assay type: cell-based, HCV strain 1b; conditions: Hepatitis C virus, Huh-7; HCV replicon cell assay; read-out: Activity Range (EC50)
Description: An HCV replicon whole cell system was established as described by Lohmann V, Korner F, Koch J, Herian U, Theilmann L, Bartenschlager R., Science 285(5424):110-3 (1999). This system enabled us to evaluate the effects of our HCV Protease compounds on HCV RNA replication. Briefly, using the HCV strain 1b sequence described in the Lohmann paper (Assession number: AJ238799), an HCV cDNA was synthesized by Operon Technologies, Inc. (Alameda, Calif.), and the full-length replicon was then assembled in plasmid pGem9zf(+) (Promega, Madison, Wis.) using standard molecular biology techniques. The replicon consists of (i) the HCV 5′ UTR fused to the first 12 amino acids of the capsid protein, (ii) the neomycin phosphotransferase gene (neo), (iii) the IRES from encephalomyocarditis virus (EMCV), and (iv) HCV NS3 to NS5B genes and the HCV 3′ UTR. Plasmid DNAs were linearized with ScaI and RNA transcripts were synthesized in vitro using the T7 MegaScript transcription kit (Ambion, Austin, Tex.) according to manufacturer's directions. In vitro transcripts of the cDNA were transfected into the human hepatoma cell line, HUH-7. […] Resulting cell lines were characterized for positive and negative strand RNA production and protein production over time.
The HCV replicon FRET assay was developed to monitor the inhibitory effects of compounds described in the disclosure on HCV viral replication. HUH-7 cells, constitutively expressing the HCV replicon, were grown in Dulbecco's Modified Eagle Media (DMEM) (Gibco-BRL) containing 10% Fetal calf serum (FCS) (Sigma) and 1 mg/ml G418 (Gibco-BRL). Cells were seeded the night before (1.5×10^4 cells/well) in 96-well tissue-culture sterile plates. Compound and no compound controls were prepared in DMEM containing 4% FCS, 1:100 Penicillin/Streptomysin (Gibco-BRL), 1:100 L-glutamine and 5% DMSO in the dilution plate (0.5% DMSO final concentration in the assay). Compound/DMSO mixes were added to the cells and incubated for 4 days at 37° C. After 4 days, cells were first assessed for cytotoxicity using alamar Blue (Trek Diagnotstic Systems) for a CC50 reading. The toxicity of compound (CC50) was determined by adding 1/10th volume of alamar Blue to the media incubating the cells. After 4 h, the fluorescence signal from each well was read, with an excitation wavelength at 530 nm and an emission wavelength of 580 nm, using the Cytofluor Series 4000 (Perspective Biosystems). Plates were then rinsed thoroughly with Phosphate-Buffered Saline (PBS) (3 times 150 μl). The cells were lysed with 25 μl of a lysis assay reagent containing an HCV protease substrate (5× cell Luciferase cell culture lysis reagent (Promega #E153A) diluted to 1× with distilled water, NaCl added to 150 mM final, the FRET peptide substrate (as described for the enzyme assay above) diluted to 10 μM final from a 2 mM stock in 100% DMSO. […]. The plate was then placed into the Cytofluor 4000 instrument which had been set to 340 nm excitation/490 nm emission, automatic mode for 21 cycles and the plate read in a kinetic mode. EC50 determinations were carried out as described for the IC50 determinations.

| Compound | IC50 [1] [nM] | EC50 [2] [nM] |
| --- | --- | --- |
| C=C[C@@H]1C[C@]1(NC(=O)[C@@H]1C[C@@](O)(c2cccc(-c3ccc(OC)cc3)c2)CN1C(=O)[C@@H](NC(=O)OC(C)(C)C)C(C)(C)C)C(=O)NS(=O)(=O)C1CC1 [Compound 8] | 100 to 1000 | 1000 to 10000 |
| C=C[C@@H]1C[C@]1(NC(=O)[C@@H]1C[C@@](O)(c2cccc(N(C)C)c2)CN1C(=O)[C@@H](NC(=O)OC(C)(C)C)C(C)(C)C)C(=O)NS(=O)(=O)C1CC1 [Compound 16] | 100 to 1000 | > 10000 |
| C=C[C@@H]1C[C@]1(NC(=O)[C@@H]1C[C@@](O)(c2cccc(CN3CCCC3)c2)CN1C(=O)[C@@H](NC(=O)OC(C)(C)C)C(C)(C)C)C(=O)NS(=O)(=O)C1CC1 [Compound 17] | 100 to 1000 | > 10000 |
| C=C[C@@H]1C[C@]1(NC(=O)[C@@H]1C[C@@H](c2ccccc2)CN1C(=O)[C@@H](NC(=O)OC(C)(C)C)C(C)(C)C)C(=O)NS(=O)(=O)C1CC1 [Compound 1] | 100 to 1000 | 1000 to 10000 |
| C=C[C@@H]1C[C@]1(NC(=O)[C@@H]1C[C@@](O)(c2cccc(Cl)c2)CN1C(=O)[C@@H](NC(=O)OC(C)(C)C)C(C)(C)C)C(=O)NS(=O)(=O)C1CC1 [Compound 12] | 1 to 100 | 1000 to 10000 |
| C=C[C@@H]1C[C@]1(NC(=O)[C@@H]1C[C@@](O)(c2ccc(F)c(C)c2)CN1C(=O)[C@@H](NC(=O)OC(C)(C)C)C(C)(C)C)C(=O)NS(=O)(=O)C1CC1 [Compound 22] | 100 to 1000 | 1000 to 10000 |
| C=CC[C@]1(O)C[C@@H](C(=O)N[C@]2(C(=O)NS(=O)(=O)C3CC3)C[C@H]2C=C)N(C(=O)[C@@H](NC(=O)OC(C)(C)C)C(C)(C)C)C1 [Compound 9] | > 1000 | > 10000 |
| C=C[C@@H]1C[C@]1(NC(=O)[C@@H]1C[C@@](O)(c2cccc(CN3CCOCC3)c2)CN1C(=O)[C@@H](NC(=O)OC(C)(C)C)C(C)(C)C)C(=O)NS(=O)(=O)C1CC1 [Compound 19] | 100 to 1000 | > 10000 |
| C=C[C@@H]1C[C@]1(NC(=O)[C@@H]1C[C@@](O)(c2cc(F)ccc2OC)CN1C(=O)[C@@H](NC(=O)OC(C)(C)C)C(C)(C)C)C(=O)NS(=O)(=O)C1CC1 [Compound 25] | 100 to 1000 | 1000 to 10000 |
| C=C[C@@H]1C[C@]1(NC(=O)[C@@H]1C[C@@](O)(c2ccccc2)CN1C(=O)[C@@H](NC(=O)OC(C)(C)C)C(C)(C)C)C(=O)NS(=O)(=O)C1CC1 [Compound 4] | 100 to 1000 | 1000 to 10000 |
| C=C[C@@H]1C[C@]1(NC(=O)[C@@H]1C[C@@](O)(c2cc(C)cc(C)c2)CN1C(=O)[C@@H](NC(=O)OC(C)(C)C)C(C)(C)C)C(=O)NS(=O)(=O)C1CC1 [Compound 21] | 1 to 100 | 1000 to 10000 |
| C=C[C@@H]1C[C@]1(NC(=O)[C@@H]1C[C@@](O)(c2cc(C)ccc2C)CN1C(=O)[C@@H](NC(=O)OC(C)(C)C)C(C)(C)C)C(=O)NS(=O)(=O)C1CC1 [Compound 24] | 100 to 1000 | 1000 to 10000 |
| C=C[C@@H]1C[C@]1(NC(=O)[C@@H]1C[C@@](O)(c2ccc(F)cc2)CN1C(=O)[C@@H](NC(=O)OC(C)(C)C)C(C)(C)C)C(=O)NS(=O)(=O)C1CC1 [Compound 6] | 100 to 1000 | 1000 to 10000 |
| C=C[C@@H]1C[C@]1(NC(=O)[C@@H]1C[C@@](O)(c2ccc(C)c(F)c2)CN1C(=O)[C@@H](NC(=O)OC(C)(C)C)C(C)(C)C)C(=O)NS(=O)(=O)C1CC1 [Compound 23] | 100 to 1000 | 1000 to 10000 |
| C=C[C@@H]1C[C@]1(NC(=O)[C@@H]1C[C@@](O)(c2cccc(OC)c2)CN1C(=O)[C@@H](NC(=O)OC(C)(C)C)C(C)(C)C)C(=O)NS(=O)(=O)C1CC1 [Compound 11] | 1 to 100 | 1000 to 10000 |
| C=C[C@@H]1C[C@]1(NC(=O)[C@@H]1C[C@@](O)(c2cccc(F)c2)CN1C(=O)[C@@H](NC(=O)OC(C)(C)C)C(C)(C)C)C(=O)NS(=O)(=O)C1CC1 [Compound 10] | 1 to 100 | 1000 to 10000 |
| C=C[C@@H]1C[C@]1(NC(=O)[C@@H]1C[C@@](O)(c2cccc(C(C)C)c2)CN1C(=O)[C@@H](NC(=O)OC(C)(C)C)C(C)(C)C)C(=O)NS(=O)(=O)C1CC1 [Compound 14] | 100 to 1000 | 1000 to 10000 |
| C=C[C@@H]1C[C@]1(NC(=O)[C@@H]1C[C@@](O)(c2cccc(C)c2)CN1C(=O)[C@@H](NC(=O)OC(C)(C)C)C(C)(C)C)C(=O)NS(=O)(=O)C1CC1 [Compound 13] | 1 to 100 | 1000 to 10000 |
| C=C[C@@H]1C[C@]1(NC(=O)[C@@H]1C[C@@](O)(c2ccc(OC)cc2)CN1C(=O)[C@@H](NC(=O)OC(C)(C)C)C(C)(C)C)C(=O)NS(=O)(=O)C1CC1 [Compound 7] | 100 to 1000 | 1000 to 10000 |
| C=C[C@@H]1C[C@]1(NC(=O)[C@@H]1C[C@@](O)(c2cccc(CN3CCCCC3)c2)CN1C(=O)[C@@H](NC(=O)OC(C)(C)C)C(C)(C)C)C(=O)NS(=O)(=O)C1CC1 [Compound 18] | 100 to 1000 | > 10000 |
